SMILES strings stand for the structures. Some results are limits rather than exact numbers.

Among the data in patent US8895535B2, “Pyrrolidinones as MetAP-2 inhibitors” (Merck Patent GmbH, priority 2010, dated 2014) are IC50 values, retold here.

Sequence of MetAP-2 (P50579 whole entry, species assumed): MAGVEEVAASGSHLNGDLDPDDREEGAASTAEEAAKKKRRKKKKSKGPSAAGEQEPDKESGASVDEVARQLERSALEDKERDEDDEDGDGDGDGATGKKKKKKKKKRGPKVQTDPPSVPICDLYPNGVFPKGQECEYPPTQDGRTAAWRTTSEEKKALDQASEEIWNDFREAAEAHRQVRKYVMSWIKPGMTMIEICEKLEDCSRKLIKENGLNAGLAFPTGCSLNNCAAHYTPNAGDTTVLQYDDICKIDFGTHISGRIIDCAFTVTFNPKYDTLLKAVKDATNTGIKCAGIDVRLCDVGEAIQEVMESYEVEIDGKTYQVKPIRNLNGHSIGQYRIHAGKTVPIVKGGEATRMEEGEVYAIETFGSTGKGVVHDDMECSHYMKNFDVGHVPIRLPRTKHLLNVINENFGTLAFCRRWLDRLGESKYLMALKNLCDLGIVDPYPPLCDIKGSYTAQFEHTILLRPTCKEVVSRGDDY

This assay addresses MetAP-2 (Homo sapiens, UniProt P50579). Nature of the assay: MetAP-2 activity measurement (coupled enzymatic reactions, substrate Met-Arg-Ser). The settings on record: Inhibition of MetAP-2; read-out: IC50 enzyme. The class given is biochemical. The procedure: MetAP-2 Activity Measurement
The MetAP-2 activity is determined by coupling enzymatic reactions. The tripeptide Met-Arg-Ser (MAS) is employed as substrate. The methionine liberated is firstly converted into Metox and H2O2 by L-aminooxidase (AAO).
MetAP-2 activity can be recorded continuously as kinetics. The reaction scheme illustrates that one mol of dianisidineox is formed per mol of methionene. The MetAP-2 enzyme activity can therefore be calculated directly as Δ absorption per time unit. […] of the MetAP-2 activity (mol of Met/time unit) is possible with the aid of the dianisidineox extinction coefficient.
The change in extinction per time unit is depicted graphically and a slope calculation is carried out in the visually linear region of the reaction.
As for `CC(C)C(C)NC(=O)[C@@]1(O)CCN(c2ccccc2)C1=O` (some centres unmarked) [A326], the IC50 lay within 1000 to 10000 nM. As for `O=C(NCCc1nnc(C(F)(F)F)o1)[C@@]1(O)CCN(c2ccccc2)C1=O` [A15], the IC50 is more than 10000 nM. As for `O=C(NCc1nc2ccccc2s1)[C@@]1(O)CCN(c2ccccc2)C1=O` [A60], the figure is more than 10000 nM; as for `O=C(NCc1ccco1)C1(O)CCN(c2ccccc2)C1=O` (centres unmarked) [A64], 1000 to 10000 nM. `CC(C)CNC(=O)[C@@]1(O)CCN(c2ccccc2)C1=O` [A305]: the IC50 fell in the range of 1000 to 10000 nM. As for `CC(C)n1cc(N2CC[C@](O)(C(=O)NCc3cccc(Cl)c3F)C2=O)cn1` [A200], the figure is 10 to 1000 nM; as for `CC(C)n1cc(N2CC[C@](O)(C(=O)NCCc3cc(F)cc(Cl)c3)C2=O)cn1` [A240], 10 to 1000 nM. The result for `O=C(NCCc1cccs1)[C@@]1(Cl)CCN(c2ccccc2)C1=O` [A61] reads more than 10000 nM.

For `CCc1nnc(CCNC(=O)[C@@]2(O)CCN(c3ccccc3)C2=O)s1` [A35], the IC50 is more than 10000 nM. The result for `O=C(NCc1cc(F)cc(C(F)(F)F)c1)[C@@]1(O)CCN(c2ccc(F)cc2)C1=O` [A162] reads 10 to 1000 nM. For the compound `O=C(NCc1cccc(Br)c1)[C@]1(O)CCN(c2ccccc2)C1=O` [A79], the IC50 was more than 10000 nM. As for `O=C(NCc1cc(F)cc(Cl)c1)[C@@]1(O)CCN(C2CCCCC2)C1=O` [A173], the figure is 10 to 1000 nM. For `Cc1ccn(CCNC(=O)[C@@]2(O)CCN(c3ccccc3)C2=O)n1` [A19], the IC50 lay within 1000 to 10000 nM.

Consider `O=C(NCCCN1CCOCC1)[C@@]1(O)CCN(c2ccccc2)C1=O` [A292], for which the IC50 is more than 10000 nM. As for `Cc1ccc(N2CC[C@](O)(C(=O)NCc3cc(F)cc(Cl)c3)C2=O)cn1` [A181], the figure is 10 to 1000 nM. As for `O=C(NCc1cccc(Br)c1)[C@]1(Cl)CCN(c2ccccc2)C1=O` [A43], the figure is more than 10000 nM; as for `CNC(=O)Cn1ccc2cc(N3CC[C@](O)(C(=O)NCc4cc(F)cc(Cl)c4)C3=O)ccc21` [A287], 10 to 1000 nM.

Turning to `O=C(NCc1cccc(Br)c1)[C@]1(O)CCN(c2ccc(F)cc2)C1=O` [A41], the half-inhibitory concentration (IC50) was 1000 to 10000 nM. The result for `O=C(NCc1cccc(Br)c1)[C@@]1(O)CCN(c2ccc(F)cc2)C1=O` [A38] reads 10 to 1000 nM; that for `Cc1nnc(CCNC(=O)[C@@]2(O)CCN(c3ccccc3)C2=O)s1` [A14], more than 10000 nM; that for `O=C(NCCc1cccs1)[C@]1(O)CCN(c2ccc3ccccc3c2)C1=O` [A69], 10 to 1000 nM. As to `O=C(NCCc1noc(C2CCCC2)n1)[C@@]1(O)CCN(c2ccccc2)C1=O` [A12], the IC50 was more than 10000 nM. In the case of `O=C(NCc1ccc2c(c1)OCO2)[C@@]1(O)CCN(c2ccccc2)C1=O` [A295], the IC50 is 1000 to 10000 nM. The result for `O=C(NCc1cccc(Br)c1)[C@@]1(O)CCN(c2cccc3ccccc23)C1=O` [A71] reads 10 to 1000 nM; that for `O=C(NCCc1cccs1)[C@@]1(O)CCN(c2ccc(F)cc2F)C1=O` [A31], 10 to 1000 nM; that for `O=C(NCCc1nccs1)[C@@]1(O)CCN(c2ccccc2)C1=O` [A17], 10 to 1000 nM. `CS(=O)(=O)c1ccc(N2CC[C@](O)(C(=O)NCc3cc(F)cc(Cl)c3)C2=O)cc1` [A260]: the IC50 is 10 to 1000 nM. As for `Cc1nccn1-c1cccc(CNC(=O)[C@@]2(O)CCN(c3ccccc3)C2=O)c1` [A9], the figure is 1000 to 10000 nM. As for `O=C(NCc1ccccn1)[C@@]1(O)CCN(c2ccccc2)C1=O` [A26], the IC50 was more than 10000 nM. The result for `O=C(NCc1cccc(Br)c1)[C@]1(O)CCN(c2ccc(Br)cc2)C1=O` [A76] reads more than 10000 nM; that for `O=C(NCc1ccc(F)c(Br)c1)[C@@]1(O)CCN(c2ccccc2)C1=O` [A23], 10 to 1000 nM. As for `O=C(NCc1cccc(N2CCCC2)n1)[C@@]1(O)CCN(c2ccccc2)C1=O` [A25], the figure is more than 10000 nM. As for `O=C(NCCN1CCCC1)[C@@]1(O)CCN(c2ccccc2)C1=O` [A45], the figure is more than 10000 nM; as for `O=C(NCc1cc(Br)ccc1F)[C@@]1(O)CCN(c2ccccc2)C1=O` [A22], 10 to 1000 nM; as for `CCCCNC(=O)[C@@]1(O)CCN(c2ccccc2)C1=O` [A310], 10 to 1000 nM. Consider `O=C(NCCc1cccs1)[C@]1(O)CCN(c2ccc(Br)cc2)C1=O` [A77], for which the 50% inhibitory concentration (IC50) was in the range of 1000 to 10000 nM. As for `O=C(NCc1cccc(Br)c1)[C@@]1(O)CCN(c2ccc(F)c(Cl)c2)C1=O` [A50], the figure is 10 to 1000 nM. `O=C(NCCn1cccn1)[C@@]1(O)CCN(c2ccccc2)C1=O` [A44]: the IC50 lay within 1000 to 10000 nM.

Turning to `O=C(N1CCCCC1)[C@@]1(O)CCN(c2ccccc2)C1=O` [A308], the IC50 is more than 10000 nM.

As to `O=C(NCC1CCCCC1)[C@@]1(O)CCN(c2ccccc2)C1=O` [A324], the IC50 was 10 to 1000 nM.

Turning to `CN(Cc1ccsc1)C(=O)[C@@]1(O)CCN(c2ccccc2)C1=O` [A321], the IC50 is more than 10000 nM.

With `CCN(Cc1ccccc1)C(=O)[C@@]1(O)CCN(c2ccccc2)C1=O` [A303], the IC50 is more than 10000 nM.

For `COC(=O)N1CCc2cc(N3CCC(O)(C(=O)NCc4cc(F)cc(Cl)c4)C3=O)ccc21` (centres unmarked) [A286], the IC50 was 10 to 1000 nM. The result for `CCc1nnn(CCNC(=O)[C@]2(O)CCN(c3ccccc3)C2=O)n1` [A42] reads more than 10000 nM; that for `O=C(NCc1ccco1)[C@@]1(O)CCN(c2ccccc2)C1=O` [A62], 10 to 1000 nM; that for `CN(C(=O)[C@@]1(O)CCN(c2ccccc2)C1=O)C1CCCC1` [A323], 1000 to 10000 nM. As for `CS(=O)(=O)N1CCc2cc(N3CCC(O)(C(=O)NCc4cc(F)cc(Cl)c4)C3=O)ccc21` (centres unmarked) [A253], the figure is 10 to 1000 nM; as for `O=C(NCc1cccc(C(F)(F)F)c1)[C@@]1(O)CCN(c2ccccc2)C1=O` [A28], 10 to 1000 nM. As for `O=C(NCCc1cc(F)cc(Cl)c1)[C@@]1(O)CCN(c2ccc(C(F)(F)F)cc2)C1=O` [A233], the figure is 10 to 1000 nM; as for `O=C(NCCc1cccs1)[C@@]1(O)CCN(c2ccc(F)c(Cl)c2)C1=O` [A51], 10 to 1000 nM; as for `CC(C)(C)c1nc(CCNC(=O)[C@@]2(O)CCN(c3ccccc3)C2=O)no1` [A10], more than 10000 nM.

For the compound `CCNC(=O)N1CCc2cc(N3CC[C@](O)(C(=O)NCc4cc(F)cc(Cl)c4)C3=O)ccc21` [A290], the IC50 was in the range of 10 to 1000 nM. As for `O=C(NCc1ccc(F)c(Cl)c1F)[C@@]1(O)CCN(c2ccccc2)C1=O` [A46], the figure is 10 to 1000 nM. As for `CC(C)(C)c1cnc(CCNC(=O)[C@@]2(O)CCN(c3ccccc3)C2=O)o1` [A2], the figure is more than 10000 nM.

As to `CCc1nnnn1CCNC(=O)[C@@]1(O)CCN(c2ccccc2)C1=O` [A13], the IC50 was more than 10000 nM.

With `O=C(NCc1ccc(F)c(Cl)c1)[C@]1(O)CCN(c2ccccc2)C1=O` [A74], the IC50 was more than 10000 nM. For the compound `O=C(NCc1cccc(Br)c1)[C@@]1(O)CCN(c2ccc(F)cc2F)C1=O` [A52], the IC50 fell in the range of 10 to 1000 nM. As for `O=C(NCc1cccc(Cl)c1F)[C@@]1(O)CCN(c2ccccc2)C1=O` [A20], the figure is 10 to 1000 nM; as for `O=C(NCc1cc(F)cc(Cl)c1)C1(O)CCN(c2ccc3c(cnn3C3CCCCO3)c2)C1=O` (centres unmarked) [A279], 10 to 1000 nM. Turning to `O=C(NCc1cccc(Br)c1)[C@@]1(O)CCN(c2ccc3ccccc3c2)C1=O` [A54], the IC50 was in the range of 10 to 1000 nM. For the compound `O=C(NCc1cccc(Br)c1)[C@]1(O)CCN(c2ccc(F)c(Cl)c2)C1=O` [A73], the half-inhibitory concentration (IC50) fell in the range of 1000 to 10000 nM. As for `O=CN1CCc2cc(N3CC[C@@](O)(C(=O)NCc4cc(F)cc(Cl)c4)C3=O)ccc21` [A285], the figure is more than 10000 nM. The result for `Cc1nc(CCNC(=O)[C@@]2(O)CCN(c3ccccc3)C2=O)cs1` [A16] reads 1000 to 10000 nM; that for `O=C(NCCc1cc(F)cc(Cl)c1)[C@]1(O)CCN(c2cccc(C(F)(F)F)c2)C1=O` [A220], 1000 to 10000 nM. As for `O=C(NCc1cccc(OC(F)(F)F)c1)[C@@]1(O)CCN(c2ccccc2)C1=O` [A8], the figure is 1000 to 10000 nM. `CC1CCN(C(=O)[C@@]2(O)CCN(c3ccccc3)C2=O)CC1` [A316]: the IC50 was 1000 to 10000 nM. As for `CCCC(C)NC(=O)[C@@]1(O)CCN(c2ccccc2)C1=O` (some centres unmarked) [A298], the figure is 1000 to 10000 nM. As for `CC(C)(C)c1noc(CCNC(=O)[C@@]2(O)CCN(c3ccccc3)C2=O)n1` [A34], the IC50 was more than 10000 nM. For `O=C(NCCc1cccs1)[C@@]1(O)CCN(c2ccc(Br)cc2)C1=O` [A30], the IC50 was in the range of 10 to 1000 nM.

`O=C(NCc1cccc(Cl)c1F)[C@@]1(O)CCN(c2ccc(F)cc2)C1=O` [A58]: the IC50 fell in the range of 10 to 1000 nM. For `O=C(NCc1cccc(Br)c1)[C@@]1(Cl)CCN(c2ccccc2)C1=O` [A39], the IC50 was more than 10000 nM.

In the case of `O=C(NCCc1cccs1)[C@@]1(O)CCN(c2ccc3ccccc3c2)C1=O` [A55], the IC50 was 10 to 1000 nM. The result for `O=C(NCc1cccc(Br)c1)[C@]1(O)CCN(c2cccc3ccccc23)C1=O` [A53] reads more than 10000 nM; that for `O=CN1CCc2cc(N3CC[C@](O)(C(=O)NCc4cc(F)cc(Cl)c4)C3=O)ccc21` [A282], 10 to 1000 nM. As for `O=C(NCc1cccc(Br)c1)[C@]1(O)CCN(c2ccc(F)cc2F)C1=O` [A72], the figure is more than 10000 nM; as for `O=C(NCc1cccnc1)[C@@]1(O)CCN(c2ccccc2)C1=O` [A24], 1000 to 10000 nM; as for `O=C(NCCc1cccs1)[C@@]1(O)CCN(c2cccc(Cl)c2)C1=O` [A37, (S)-1-(3-chlorophenyl)-3-hydroxy-2-oxopyrrolidine-3-carboxylic acid (2-thiophen-2-ylethyl)amide], 10 to 1000 nM. As for `O=C(NCCc1cccs1)[C@@]1(O)CCN(c2ccc(F)cc2)C1=O` [A32], the figure is 10 to 1000 nM; as for `O=C(NCc1cccc(Cl)c1F)[C@]1(O)CCN(c2cccc(Cl)c2)C1=O` [A68], 1000 to 10000 nM; as for `CC(=O)N1CCc2cc(N3CCC(O)(C(=O)NCCc4cc(F)cc(Cl)c4)C3=O)ccc21` (centres unmarked) [A261], 10 to 1000 nM.

In general, IC50 refers to the concentration that inhibits the measured activity by half.
